Reference: the supplement of paper PMC10307832

Tests used:
Dabrafenib = compound: CC(C)(C)c1nc(-c2cccc(NS(=O)(=O)c3c(F)cccc3F)c2F)c(-c2ccnc(N)n2)s1 [Dabrafenib]; test: relative viability (nuclei count vs DMSO), 5 days (fraction); higher = more cells survive
Summary of the method: (§1)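 Acceptance criteria were a control CV below 25% and at least one doubling per plate. Lung cancer cell lines in 1536-well plates got five library-drug doses (not always all listed) √10 apart by pinning and were left 5 days with no medium change. Viability divides treated-well nuclei by vehicle-well nuclei and is the median across plates. Nuclei were counted by MetaXpress from 4× Hoechst images.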

VX-702 = compound: NC(=O)c1ccc(N(C(N)=O)c2c(F)cccc2F)nc1-c1ccc(F)cc1F [VX-702]; test: as above
Summary of the method: as §1

Cell Line | relative viability (Dabrafenib; 0.003 µM) | relative viability (Dabrafenib; 0.009487 µM) | relative viability (Dabrafenib; 0.03 µM) | relative viability (Dabrafenib; 0.09487 µM) | relative viability (Dabrafenib; 0.3 µM) | relative viability (VX-702; 0.02 µM) | relative viability (VX-702; 0.2 µM) | relative viability (VX-702; 0.6325 µM) | relative viability (VX-702; 2 µM)
PC-14 | 0.795 | 1.05 | 1.11 | 1.01 | 1.1 | 1.11 | 1.03 | 1.12 | 0.873
RERF-LC-KJ | 1 | 1.15 | 0.969 | 0.986 | 1.1 | 0.989 | 1.03 | 1.01 | 1.03
ChaGo-K-1 | 0.787 | 0.951 | 0.876 | 0.912 | 1.01 | 1.03 | 0.993 | 0.994 | 1.02
H3255 | 0.868 | 1.05 | 0.992 | 0.873 | 1.04 | 0.978 | 0.966 | 0.96 | 1.05
NCI-H1299 | 0.991 | 0.988 | 0.963 | 0.92 | 0.842 | 1.09 | 0.994 | 1.07 | 1.12
NCI-H1563 | 0.971 | 1.01 | 0.815 | 0.988 | 1.04 | 0.991 | 1.06 | 0.976 | 1.07
SK-MES-1 | 0.81 | 1.08 | 1.03 | 0.954 | 0.934 | 0.998 | 0.966 | 0.944 | 0.999
NCI-H1648 | 1.02 | 0.861 | 0.814 | 1.12 | 1.17 | 0.926 | 0.877 | 0.688 | 0.63
NCI-H1755 | 0.99 | 1.03 | 0.875 | 0.94 | 0.971 | 1.01 | 1.03 | 1.1 | 0.998
NCI-H1651 | 0.977 | 0.939 | 0.953 | 1.02 | 0.948 | 1.02 | 0.985 | 0.998 | 1.06
NCI-H23 | – | 0.913 | 0.85 | 0.642 | 0.919 | 1.07 | 0.87 | 1.1 | 1.16
A549 | 0.928 | 1.03 | 0.93 | 0.93 | 0.969 | 0.999 | 0.928 | 1.02 | 1.07
NCI-H661 | 0.988 | 0.967 | 0.94 | 0.986 | 0.958 | 1.02 | 0.98 | 1.04 | 1.1
NCI-H650 | – | 1.17 | 0.708 | 0.575 | 0.564 | 1.04 | – | 1.07 | 1.24
NCI-H2009 | 0.883 | 0.974 | 0.894 | 0.625 | 0.628 | 1.23 | 1.15 | 1.2 | 1.26
LC-2-ad | 0.79 | 1.08 | 1 | 0.892 | 1.06 | 1.04 | 1.01 | 1.05 | 1.06
HCC-366 | 0.734 | 1.04 | 0.725 | 0.993 | 1.11 | 1.06 | 0.969 | 0.98 | 0.587
UMC-11 | 1.04 | 0.988 | 0.855 | 0.997 | 0.956 | 0.923 | 0.857 | 0.82 | 1.12
PC-3 [JPC-3] | 0.822 | 1.08 | 1.11 | 1.03 | 1.13 | 1.11 | 0.988 | 1.13 | 1.06

Cell Line | relative viability (Dabrafenib; 0.003 µM) | relative viability (Dabrafenib; 0.009487 µM) | relative viability (Dabrafenib; 0.03 µM) | relative viability (Dabrafenib; 0.09487 µM) | relative viability (Dabrafenib; 0.3 µM) | relative viability (VX-702; 0.02 µM) | relative viability (VX-702; 0.2 µM) | relative viability (VX-702; 0.6325 µM) | relative viability (VX-702; 2 µM)
NCI-H596 | – | 1.13 | 0.768 | 1.03 | 1.1 | 1.04 | 0.829 | 1.02 | 1.07
NCI-H441 | – | 0.96 | 1.01 | 0.51 | 0.766 | 1.14 | 0.952 | 0.934 | 0.992
LOU-NH91 | – | 1.07 | 0.905 | 0.935 | 1.09 | 1 | 0.836 | 0.971 | 0.783
IA-LM | 1 | 0.84 | 0.984 | 0.58 | 0.405 | 0.956 | 0.896 | 0.92 | 1.04
EBC-1 | 0.856 | 0.987 | 0.895 | 0.533 | 0.391 | 1.08 | 0.999 | 0.968 | 1.08
NCI-H727 | – | 0.998 | 0.782 | 0.902 | 1.1 | 1.09 | 1 | 0.84 | 1.04
NCI-H1395 | – | 0.971 | 0.854 | 0.774 | 0.788 | 0.971 | 0.909 | 0.97 | 1.03
NCI-H2126 | 0.875 | 1.06 | 0.994 | 1.02 | 1.08 | 1.03 | 0.963 | 1.02 | 0.954
LCLC-97TM1 | – | 0.914 | 1.01 | 0.508 | 0.756 | 0.938 | 0.982 | 0.996 | 0.937
NCI-H460 | 0.965 | 0.954 | 0.919 | 0.968 | 0.985 | 1.02 | 0.95 | 1.06 | 0.989
NCI-H1650 | 0.944 | 1.26 | 0.854 | 1.07 | 1.36 | 1 | 1.01 | 1.09 | 1.02
NCI-H1993 | 0.913 | 0.945 | 0.966 | 1.12 | 1.4 | 0.876 | 0.874 | 1.04 | 0.862
NCI-H522 | – | 1.2 | 1 | 0.97 | 1.07 | 0.989 | 0.982 | 0.928 | 0.992
HCC-78 | – | 1.03 | 0.932 | 0.816 | 1.05 | 0.947 | 0.878 | 0.98 | 1.07
HCC-44 | 0.885 | 0.971 | 1.01 | 0.921 | 0.933 | 1.05 | 0.979 | 1.08 | 1.05
LXF-289 | 0.923 | 1 | 1.16 | 0.944 | 1.14 | 1.01 | 1.01 | 1.08 | 1.02
201T | 0.958 | 1.01 | 0.914 | 0.987 | 1.04 | 0.981 | 1 | 1.01 | 0.976
NCI-H2023 | 0.877 | 1.01 | 1.01 | 0.948 | 1.07 | 1.03 | 1.04 | 1.01 | 1.18
Calu-6 | 1.03 | 1.03 | 0.909 | 0.805 | 0.786 | 1.11 | 1 | 1.08 | 1.21
